Test results: patent EP0874630B1, “TOP[…] POISON AND BIS-DIOXY[…] COMBINATION THERAPY” (priority 1996, dated 1997)
Where “and” joins values, the source holds several entries; their conditions need not be identical. Equal values may be shown once. Read-outs that look alike come from different tables or passages of the source.

How the values were obtained:
mice [1] = settings: for increase in LD10 enabled by ICRF-187: LD10 of the topoisomerase II poison with ICRF-187 versus alone, mice
Description: Calculation of LD10 and LD50 using the maximum likelihood estimation. The 6 experiments in Table 2 are included in the computations.

L1210 leukemia cells = experiment: Therapy study, mice inoculated i.p. with L1210 leukemia cells (increase in life span); type: in vivo
Protocol: (§1) In therapy studies, mice were inoculated i.p. with either 10^5 L1210 leukemia cells or 15x10^6 Ehrlich's ascites tumour cells on day 0 and treated with drugs i.p. on day 4 after inoculation. The brain tumour model consisted of 10^4 L1210 cells or 15x10^4 Ehrlich's ascites tumour cells in a volume of 30 µl of isotonic sodium chloride inoculated on day 0 into the temporal region followed by treatment i.p. on day 2, 3 or 4 after inoculation.
(§2) 1×10^5 L1210 tumour cells or 15×10^6 Ehrlich's ascites tumour cells were inoculated i.p. on day 0 and mice were treated i.p. on day 4. The Mann Whitney test was used for statistical evaluation.

mice [2] = settings: mouse
Protocol: First generation hybrids of female random bred Swiss mice and male inbred DBA (NDF1-hybrid) mice were used as previously described (5). The mice weighed between 19 and 21 g at the start of the experiments. […] Lethality was recorded and surviving mice were sacrificed after 60 days. Toxicity was evaluated by weight and leucocyte counts. For weight evaluations mice were treated with drugs, marked and weighed for eleven consecutive days. Blood for leucocyte counts was obtained from a tail vein and counted in a hemocytometer on days 3, 5 and 7 after treatment.

[3] = system: Ehrlich's ascites tumour cells; experiment: Therapy study, mice inoculated i.p. with Ehrlich's ascites tumour cells (increase in life span); type: in vivo
Protocol: as §1, §2

mice [4] = experiment: Lethality in healthy mice after drugs given once i.p., with or without ICRF-187 pretreatment (survivors/treated); type: in vivo; settings: for survivors/treated: compiled data from two experiments
Protocol: Toxicity was evaluated by weight and leucocyte counts.
The compiled data from two experiments showing that paclitaxel induced lethality cannot be protected by pretreamtment with ICRF-187. Groups of 11 mice were treated once i.p. with or without pretreatment with ICRF-187.

[5] = NDF1 hybrid (female Swiss x male DBA), mouse, in vivo, ip, 60 days

For C[C@@H](CN1CC(=O)NC(=O)C1)N1CC(=O)NC(=O)C1 [ICRF-187, (+)-1,2-bis(3,5-dioxopiperazinyl-1-yl)propane], the LD10 (mice [1]; [5]) was 500 mg/kg, the LD90 (mice [1]; [5]) was 1500 mg/kg and the antitumour effect (L1210 leukemia cells; ICRF-187 alone, mice inoculated i.p. with L1210 tumour cells) was “no antitumour effect”. For the same compound, the survivors/treated (mice [2]; NDF1 hybrid (female Swiss x male DBA), in vivo, 100 mg/kg, 60 days) was 11/11, the “ICRF-187 mediated protection in vivo” value (mice [2]) was “not obtained” and the antitumour effect ([3]; ICRF-187 alone, mice inoculated i.p. with Ehrlich's ascites tumour) was “no antitumour effect”.

With CC(=O)O[C@H]1C(=O)[C@@]2(C)[C@H]([C@H](OC(=O)c3ccccc3)[C@]3(O)C[C@H](OC(=O)[C@H](O)[C@@H](NC(=O)c4ccccc4)c4ccccc4)C(C)=C1C3(C)C)[C@]1(OC(C)=O)CO[C@@H]1C[C@@H]2O [Paclitaxel, paclitaxel] the “Survivors/ treated, %” value (mice [4]; Paclitaxel 30 mg/kg alone) was 100%, the survivors/treated (mice [4]; Paclitaxel 30 mg/kg alone) was 22/22 and the “Survivors/ treated, %” value (mice [4]; Paclitaxel 40 mg/kg alone) was 55%. For the same compound, the survivors/treated (mice [4]; Paclitaxel 40 mg/kg alone) was 12/22, the “Survivors/ treated, %” value (mice [4]; Paclitaxel 50 mg/kg alone) was 0% and the survivors/treated (mice [4]; Paclitaxel 50 mg/kg alone) was 0/22.

In the case of COc1cc([C@@H]2c3cc4c(cc3[C@@H](O[C@@H]3O[C@@H]5CO[C@@H](C)O[C@H]5[C@H](O)[C@H]3O)[C@H]3COC(=O)[C@H]23)OCO4)cc(OC)c1O [etoposide], the “increase in LD10 enabled by ICRF-187” value (mice [1]) is reported as 3.6 fold, the LD10 (mice [1]; dose of etoposide killing 10% of the mice, maximum likelihood estimation, 6 experiments of Table 2, combination with 125 mg/kg ICRF-187, 125 mg/kg) is reported as 34 mg/kg and 33 mg/kg and the LD10 (mice [1]; dose of etoposide killing 10% of the mice, maximum likelihood estimation, 6 experiments of Table 2, combination with 125 mg/kg ICRF-187, listed as VP-16, 125 mg/kg) is reported as 34.0 mg/kg. The “log LD10” value (mice [1]; maximum likelihood estimation on the 6 experiments of Table 2, combination with 125 mg/kg ICRF-187) was 1.531, the “ILS(%)” value (L1210 leukemia cells; Etoposide 33 mg/kg i.p. on day 4, 1×10^5 L1210 tumour cells i.p. on day 0) was 113% and 100% and 88% and the “increased life span, ILS(%) (etoposide alone set to 100)” value (L1210 leukemia cells; Table 5B, Etoposide 33 mg/kg, L 1210 tumour cells i.p.) was 100%. For the same compound, the “ILS(%)” value ([3]; Etoposide 33 mg/kg i.p. on day 4, 15×10^6 Ehrlich's ascites tumour cells i.p. on day 0) was 53% and 40% and 35% and the “increased life span, ILS(%) (etoposide alone set to 100)” value ([3]; Table 5A, Etoposide 33 mg/kg, Ehrlich's tumour cells i.p.) was 100%.

COc1cc([C@@H]2c3cc4c(cc3[C@@H](O[C@@H]3O[C@@H]5CO[C@@H](c6cccs6)O[C@H]5[C@H](O)[C@H]3O)[C@H]3COC(=O)[C@H]23)OCO4)cc(OC)c1O [teniposide] was tested, and the “increase in LD10 enabled by ICRF-187” value (mice [1]) was 3.4 fold.
